Source: PubChem BioAssay AID488890 (Southern Research Specialized Biocontainment Screening …, 2010)
Results filed as inconclusive are left out. The source made the active and inactive calls. The rule behind the calls is not given here.

These compounds were tested on Mycobacterium tuberculosis non-replicating, growth inhibition (assay: growth inhibition of non-replicating M. tuberculosis (AID 488890)).
`CCCc1ccc(OCc2ccc(C(=O)N/N=C/c3cccnc3)o2)cc1` was tested, and the IC50 was 8.42 µM.
`Cc1nonc1C(=O)N/N=C/c1ccc([N+](=O)[O-])o1` was tested, and the IC50 was 10.1 µM (inactive).
`O=C(N/N=C/C(Br)=C/c1ccccc1)c1cnccn1` was tested, and the IC50 was 13.1 µM (inactive).
For `O=C(COC(=O)CCN1C(=O)/C(=C\C=C\c2ccccc2)SC1=S)Nc1cc(F)ccc1F`, the IC50 was 13.9 µM (inactive).
Work on `Cc1cccc(OCCCCc2c(C)n[nH]c2C)c1` yielded an IC50 of 9.86 µM.
For `CCOC(=O)c1nc2sc3c(c2c(=O)[nH]1)CCC(C)C3` (stereo unspecified), the IC50 was < 0.1 µM.
With `COc1cccc(/C=N/N2C(=O)CSC2=S)c1O` the IC50 was 23.9 µM (inactive).
`CC(C)CNc1nc(=S)nc(N(C)C)[nH]1` was tested, and the IC50 was 11.5 µM (inactive).
`CCn1c(NC(=O)c2ccccc2)nc2ccccc21` gave an IC50 of 4.44 µM.
With `Cc1ccc(C)c(-c2nnc(NC(=O)c3ccc([N+](=O)[O-])o3)o2)c1` the IC50 was 0.46 µM.
For `Nc1nnc(Sc2ncccc2[N+](=O)[O-])s1`, the IC50 was 17 µM (inactive).
`Oc1c(C(c2ccccc2Cl)N2CCCC2)ccc2cccnc12` (stereo unspecified) showed an IC50 of 4.68 µM.
For `CNc1nc(-c2ccccn2)nnc1-c1ccccc1`, the IC50 was 16.2 µM (inactive).
With `CN(C)S(=O)(=O)Oc1ccc(C(=O)Nc2cccc(C(F)(F)F)c2)cc1` the IC50 was 13.5 µM (inactive).
`C/C(=N\Nc1ccc(Cl)cc1)c1ccccn1` was tested, and the IC50 was 15.9 µM (inactive).
`COc1cc(/C=C2\C(=O)N(c3ccc(S(N)(=O)=O)cc3)N=C2C)ccc1OC(=O)c1ccco1` showed an IC50 of 7.44 µM.
`O=C(Nc1ccc(Cc2ccncc2)cc1)c1ccc([N+](=O)[O-])o1` gave an IC50 of 1.74 µM.
`CCOC(=O)CCS(=O)(=O)c1nc(-c2ccccc2)cc(C(F)(F)F)n1` showed an IC50 of 0.99 µM.
Compound `O=C(/C=C/Nc1ccccc1O)c1ccco1` has an IC50 of 2.02 µM.
`COC(=O)[C@@H](NC(=O)c1cc(COc2cncc(Cl)c2)on1)c1ccccc1` was tested, and the IC50 was 5.58 µM.
`Cc1ccc(-n2cc(CNCCn3nc(C)cc3C)c(-c3ccc(F)cc3)n2)cc1` gave an IC50 of 6.05 µM.
For `CCOC(=O)c1cc(COc2cc(Cl)cc(Cl)c2)on1`, the IC50 was 0.59 µM.
With `Cc1ccc(-c2noc(CCC(=O)Nc3cccc(C#N)c3)n2)cc1` the IC50 was 17.4 µM (inactive).
For `COc1ccc(C(=O)Nc2nnc(C3=COCCO3)o2)cc1`, the IC50 was 7.69 µM.
In the case of `O=C1N(c2ccc3c(c2)OCCO3)C(c2ccccc2)C1(F)F` (stereo unspecified), the IC50 is reported as 2.28 µM.
For `CC[n+]1c(/C=C(\C)Nc2ccccc2)sc2ccccc21`, the IC50 was 6.34 µM.
For `COC(=O)CC(=O)N1CCN(c2ccc(Cl)c(Cl)c2)CC1`, the IC50 was 5.82 µM.
`CC(Cc1cccs1)NC(=O)c1cccc(Cl)c1` (stereo unspecified) gave an IC50 of 8.14 µM.
`O=c1c2c([N+](=O)[O-])cc([N+](=O)[O-])cc2nc2ccccn12` was tested, and the IC50 was 9.45 µM.
With `CN(C)CCCNc1nc2sc3c(c2c(=O)n1CCc1ccccc1)CCCCC3` the IC50 was 12 µM (inactive).
In the case of `O=C(O)c1ccc(CN2C(=O)CSC2=S)cc1`, the IC50 is reported as 9 µM.
With `Cc1ccc(NC(=O)C(=O)NNC(=O)c2ccccc2C)cc1Cl` the IC50 was 2.67 µM.
`O=C1C=C(Nc2ccc(F)cc2)c2ccccc2C1=O` gave an IC50 of 5.36 µM.
For `O=c1cc(-c2ccccc2Cl)oc2ccc([N+](=O)[O-])c(O)c12`, the IC50 was 1.59 µM.
With `COC(=O)c1ccc(COC(=O)CCS(=O)(=O)c2ccc(C)cc2)cc1` the IC50 was 19 µM (inactive).
With `COc1ccc(N/N=C/c2c(C(=O)O)ccc3ccccc23)cc1` the IC50 was < 0.1 µM.
Compound `COc1ccc(Cc2nnc(SCc3ccc([N+](=O)[O-])cc3)o2)cc1` has an IC50 of 3.16 µM.
With `CC1C/C(=N/NC(=O)c2cccc(F)c2)c2ccc(O)cc2C1` (stereo unspecified) the IC50 was 14 µM (inactive).
`CC(C)Cn1c([N+](=O)[O-])nc2c1c(=O)[nH]c(=O)n2C` gave an IC50 of 5.81 µM.
`CCOC(=O)c1cc(-c2cccc([N+](=O)[O-])c2)on1` gave an IC50 of 0.64 µM.
With `NC(=O)C1(N2CCCCC2)CCN(C2CC(=O)N(CCc3ccccc3)C2=O)CC1` (stereo unspecified) the IC50 was 13 µM (inactive).
`NCCNc1ccc([N+](=O)[O-])c2cccnc12` was tested, and the IC50 was 4.89 µM.
With `Cc1nc([N+](=O)[O-])c(Br)n1Cc1ccccc1` the IC50 was 14.1 µM (inactive).
`Cc1cc(OCCOCCNCc2ccccc2)ccc1C(C)C` was tested, and the IC50 was 15.1 µM (inactive).
For `C/C(CC(=O)Nc1ccc(N(C)C)cc1)=N\NC(=O)c1ccncc1`, the IC50 was 0.3 µM.
Compound `O=C(Nc1nnc(-c2ccncc2)o1)c1ccc(Br)s1` has an IC50 of 7.66 µM.
Compound `Cc1nc2c(=O)n(C)c(=O)nc-2n(C)n1` has an IC50 of 8.25 µM.
In the case of `CN1CCN(c2c(F)cc3c(=O)c(C(=O)O)cn4c3c2SCC4)CC1`, the IC50 is reported as 16.8 µM (inactive).
With `COc1ccc(C(=O)Nc2ccccc2C(=O)N/N=C/c2ccccn2)cc1OC` the IC50 was 24.7 µM (inactive).
With `O=C(CNC(=O)c1ccccc1Cl)N/N=C/c1ccc([N+](=O)[O-])s1` the IC50 was 23.5 µM (inactive).
In the case of `Cc1ccc(OC(=O)CCS(=O)(=O)c2ccc(C)cc2)cc1`, the IC50 is reported as 11.8 µM (inactive).
`O=C(N/N=C/C=C/c1ccccc1)c1ccccn1` showed an IC50 of 7.93 µM.
Work on `O=C(Nc1nc2ccc(F)cc2s1)c1ccccn1` yielded an IC50 of 0.11 µM.
For `Cc1ccc2c(CC(=O)OCC(=O)Nc3ccc(Cl)cn3)coc2c1`, the IC50 was 15 µM (inactive).
For `CCCCCCC1CC(C)(C(=O)CNc2nncs2)OC1=O` (stereo unspecified), the IC50 was 20.3 µM (inactive).
In the case of `CC1=NN(C(=O)c2ccccc2F)C(O)(c2ccc(Cl)cc2)C1` (stereo unspecified), the IC50 is reported as 0.5 µM.
`CN(C)CC(C(=O)c1ccccc1)c1ccccc1` (stereo unspecified) showed an IC50 of 2.83 µM.
`CCCCCCCCCCn1cc(C(C)=O)c(=O)[nH]c1=O` was tested, and the IC50 was 4.74 µM.
For `CC(=O)c1ccc(OCC(=O)Nc2ccc3c(c2)CCC3)cc1`, the IC50 was 12.4 µM (inactive).
In the case of `CCC(C)(C)NC(=O)c1ccc(Br)o1`, the IC50 is reported as 18.6 µM (inactive).
With `O=C(Nc1nccs1)c1ccccn1` the IC50 was 14.5 µM (inactive).
`COc1ccc(OC)c(N2C(=O)NC(=O)/C(=C/c3ccc([N+](=O)[O-])s3)C2=O)c1` was tested, and the IC50 was 25.5 µM (inactive).
In the case of `COc1ccc(-c2nnc(NC(=O)c3ccc(S(=O)(=O)N4COCC4(C)C)cc3)o2)cc1`, the IC50 is reported as 11.2 µM (inactive).
For `CCOC(=O)c1nn(-c2ccccc2)c2nc(Nc3ccccc3)cc(=O)n12`, the IC50 was 4.74 µM.
`CCOc1cc(CNCCO)cc(Br)c1OCc1ccccc1Cl` gave an IC50 of 6.17 µM.
For `NC1=NC[C@H](Cc2ccc(O)cc2)N1CCc1cccc2ccccc12`, the IC50 was 8.19 µM.
For `COc1ccccc1-c1cc(SC)c(C#N)c(=O)o1`, the IC50 was 14.2 µM (inactive).
In the case of `O=C(Nc1nnc(-c2ccccc2Cl)o1)c1ccco1`, the IC50 is reported as 6.7 µM.
`COC12C(COC(N)=O)C3=C(C(=O)C(C)=C(N)C3=O)N1CC1C2N1C` (stereo unspecified) was tested, and the IC50 was 0.12 µM.
`O=[N+]([O-])c1ccc(CN2CCN(c3ccc(Cl)cc3)CC2)o1` was tested, and the IC50 was < 0.1 µM.
With `C/C(Cn1nnc([N+](=O)[O-])n1)=N\NC(=O)c1ccncc1` the IC50 was 1.63 µM.
For `CCCN(CCC)CCNC(=O)c1cc2c(-c3ccc(Cl)cc3)nn(C)c2s1`, the IC50 was 22.5 µM (inactive).
With `Cc1ccc(NC(=O)COc2ccccc2CNC(C)(C)CC(C)(C)C)cc1` the IC50 was 16.5 µM (inactive).
With `COc1cc(CNC2CCCC2)cc(Cl)c1OCc1ccccc1Cl` the IC50 was 9.58 µM.
`COc1ccc(/C=C2\COc3ccccc3C2=O)cc1OC` was tested, and the IC50 was 12.5 µM (inactive).
With `Cc1noc(C)c1COc1ccc(C(=O)Nc2ccccn2)cc1` the IC50 was 24.6 µM (inactive).
`CCCOc1ccc(N2CC(C(=O)Nc3ccccc3F)CC2=O)cc1` (stereo unspecified) was tested, and the IC50 was 15.8 µM (inactive).
For `Cc1nc(C(=O)NNC(=O)c2ccc(Cl)cc2)c(C(F)(F)F)o1`, the IC50 was 13.9 µM (inactive).
In the case of `Cc1[nH]nc2c1C(c1ccc(-c3ccc(Cl)cc3)o1)C(C#N)=C(N)O2` (stereo unspecified), the IC50 is reported as 2.24 µM.
`CCc1nnc(N/N=C/c2ccc(N3CCC(C)CC3)c([N+](=O)[O-])c2)n1N` was tested, and the IC50 was 3.83 µM.
In the case of `O=C(Nc1nnc(-c2ccc(Cl)cc2)o1)C1=COCCO1`, the IC50 is reported as 14 µM (inactive).
